One data set deals with autophagy. The conditions noted are these: cited from earlier work; for inhibitory effects on autophagy: human cells (Meijer et al. 2015).
The subject of another data set is mTOR kinases. The conditions noted are these: cited from earlier work; for activators of mTOR or inhibitors of autophagy, compared with other amino acids: alone or in combination, literature search November 2011.
For the next data set, the system named is p38 MAPK. Put plainly: FPR-signaling assay: p38 MAPK phosphorylation in FPR-expressing cells stimulated with fMLP. The format is cell-based. The note with it: FPR-expressing cells; p<0.05 from 60 to 600 seconds. The source says:
(§1) Both AQGV (SEQ ID NO:11) peptide effects on p38 and PKB-mediated signalling last for the full 600 seconds tested whereas the other kinases tested were not affected throughout. […] The pathway is governing the balance between proteolysis and proteogenesis regulating cytoskeleton changes affecting vascular permeability. It is shown that an autophagy-inhibiting peptide reduces p38 MAPK kinase activated changes as well as reduces PI3K/AKT/mTOR activated induced changes in cell cytoskeleton reorganization affecting endothelial cell contraction and adverse vascular permeability. Autophagy-inhibiting peptide is useful and capable of addressing adverse vascular permeability, such as manifested by edema with vascular leakage, adverse leukocyte extravasation and hypotension, tissue injury and immune responses in human subjects.

For the next data set, the system named is PKB (also known as AKT). The experiment in a line: FPR-signaling assay: PKB (AKT) phosphorylation in FPR-expressing cells stimulated with fMLP. The note with it: FPR-expressing cells; p<0.05 at 600 seconds. The format is cell-based. The source says:
The pathway is governing the balance between proteolysis and proteogenesis regulating cytoskeleton changes affecting vascular permeability.

The test system of data set [1] is STAT3, JNK and P42/p44MAPK/ERK1,2 kinases. Put plainly: FPR-signaling assay: STAT3, JNK and P42/p44MAPK/ERK1,2 phosphorylation in FPR-expressing cells. The conditions noted are these: FPR-expressing cells. The format is cell-based.
Excerpt: as §1

The next data set deals with T1, CXCR4 (Homo sapiens, UniProt P61073).
T1 construct: In chemotaxis assays using the acute lymphoblastic leukemia cell line CCRF-CEM; endogenous in cells; host or cells: CCRF-CEM
The conditions noted are these: cited from earlier work; for agonist behaviour in chemotaxis: CCRF-CEM cell line.

A further data set concerns neutrophil. The conditions noted are these: cited from earlier work.
Data set [2] can be described thus: Distribution and elimination of intravenously injected [14C]-AQGV from mice. The format is in vivo. The procedure: The present study, which was conducted by TNO Biosciences, Utrechtseweg, Netherlands, was designed to provide data on the distribution and metabolism of [14C]-AQGV (SEQ ID NO:11) (Ala-Gln-[1-^14C]Gly-Val) in male CD-1 mice following a single intravenous dose of 50 mg/kg. To this end, mice were sacrificed at 10, 30 and 60 minutes, and 6 and 24 hours after administration of radiolabeled AQGV (SEQ ID NO:11), counts in various tissues were determined, and the radioactivity present in the urine and plasma were analyzed by HPLC.

The conditions of data set [3]: cited from earlier work.
In another data set the test system is guinea pig skin. The conditions noted are these: internal standard […]; cited from earlier work.

Like-named read-outs stand apart in the source and are kept apart here. No end group written: not given here.

T1 sequence (P61073 whole entry): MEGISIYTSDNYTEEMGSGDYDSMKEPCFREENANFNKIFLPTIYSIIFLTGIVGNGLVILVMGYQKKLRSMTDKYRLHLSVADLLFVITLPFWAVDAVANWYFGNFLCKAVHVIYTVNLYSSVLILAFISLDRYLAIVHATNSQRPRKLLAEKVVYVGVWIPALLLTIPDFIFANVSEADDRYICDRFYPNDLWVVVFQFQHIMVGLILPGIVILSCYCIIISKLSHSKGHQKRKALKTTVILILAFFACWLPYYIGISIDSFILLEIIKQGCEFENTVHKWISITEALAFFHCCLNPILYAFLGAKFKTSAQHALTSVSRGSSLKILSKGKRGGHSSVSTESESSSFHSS

Regarding `C[C@H](N)C(=O)O` [L-Alanine], in the data set on autophagy, the “Literature-based activity: autophagy” value is listed as “DOWN” and the “inhibitory effects on autophagy” value is recorded as “most prominent”. For the same compound, in the data set with mTOR kinases, the “activators of mTOR or inhibitors of autophagy, compared with other amino acids” value is reported as “more potent”.

Turning to `N=C(N)NCCC[C@H](N)C(=O)O` [L-Arginine], the “Literature-based activity: autophagy” value in the data set with autophagy is on record as “DOWN”. In the data set on mTOR kinases, the “activators of mTOR or inhibitors of autophagy, compared with other amino acids” value is given as “more potent” and the “Literature-based activity: mTOR kinases” value is on record as “activate”.

Turning to `NC(=O)CC[C@H](N)C(=O)O` [L-Glutamine], in the data set with autophagy, the “Literature-based activity: autophagy” value was “DOWN” and the “inhibitory effects on autophagy” value is on record as “most prominent”. Moreover, in the data set on mTOR kinases, the “activators of mTOR or inhibitors of autophagy, compared with other amino acids” value is reported as “more potent” and the “Literature-based activity: mTOR kinases” value is “activate”.

As for `NCC(=O)O` [L-Glycine], the “Literature-based activity: autophagy” value with autophagy is recorded as “DOWN”. Further, the “activators of mTOR or inhibitors of autophagy, compared with other amino acids” value in the data set with mTOR kinases was “more potent”.

With `N[C@@H](Cc1c[nH]cn1)C(=O)O` [L-Histidine], the “Literature-based activity: mTOR kinases” value in the data set with mTOR kinases was “down”.

Consider `CC[C@H](C)[C@H](N)C(=O)O` [L-Isoleucine], for which the “Literature-based activity: autophagy” value in the data set on autophagy was “DOWN”. Also, in the data set with mTOR kinases, the “activators of mTOR or inhibitors of autophagy, compared with other amino acids” value is on record as “more potent” and the “Literature-based activity: mTOR kinases” value is “activate”.

Regarding `CC(C)C[C@H](N)C(=O)O` [L-Leucine], in the data set with autophagy, the “Literature-based activity: autophagy” value was “DOWN” and the “inhibitory effects on autophagy” value was “most prominent”. For the same compound, in the data set on mTOR kinases, the “activators of mTOR or inhibitors of autophagy, compared with other amino acids” value is given as “more potent” and the “Literature-based activity: mTOR kinases” value is recorded as “activate”.

Regarding `NCCCC[C@H](N)C(=O)O` [L-Lysine], in the data set on mTOR kinases, the “activators of mTOR or inhibitors of autophagy, compared with other amino acids” value was “no or opposite effects” and the “Literature-based activity: mTOR kinases” value is on record as “down”.

On to `CSCC[C@H](N)C(=O)O` [L-Methionine], for which, in the data set on mTOR kinases, the “activators of mTOR or inhibitors of autophagy, compared with other amino acids” value is reported as “no or opposite effects” and the “Literature-based activity: mTOR kinases” value was “partial inhibit”.

In the case of `O=C(O)[C@@H]1CCCN1` [L-Proline], the “inhibitory effects on autophagy” value with autophagy is “most prominent”. Moreover, in the data set on mTOR kinases, the “activators of mTOR or inhibitors of autophagy, compared with other amino acids” value is “more potent” and the “Literature-based activity: mTOR kinases” value is on record as “activate”.

Turning to `C[C@@H](O)[C@H](N)C(=O)O` [L-Threonine], in the data set with mTOR kinases, the “activators of mTOR or inhibitors of autophagy, compared with other amino acids” value was “no or opposite effects” and the “Literature-based activity: mTOR kinases” value is recorded as “down”.

For the compound `CC(C)[C@H](N)C(=O)O` [L-Valine], in the data set with mTOR kinases, the “activators of mTOR or inhibitors of autophagy, compared with other amino acids” value was “more potent” and the “Literature-based activity: mTOR kinases” value was “activate”.

As for `CSCC[C@H](NC=O)C(=O)N[C@@H](CC(C)C)C(=O)N[C@@H](Cc1ccccc1)C(=O)O` [fMLP, N-Formyl-L-methionyl-L-leucyl-L-phenylalanine, reference compound], the “changes in phosphorylation status of p38 MAPK on FPR-activation” value in the data set on p38 MAPK is on record as “significant”. Also, in the data set with PKB (also known as AKT), the “changes in phosphorylation status of PKB (AKT) on FPR-activation” value is “significant”. For the same compound, in [1], the “changes in phosphorylation status of STAT3, JNK and P42/p44MAPK/ERK1,2 on FPR-activation” value is given as “not (or not detectable)”.

As to `N[C@@H](CCC(=O)O)C(=O)O` [glutamate, L-Glutamic Acid], the “activators of mTOR or inhibitors of autophagy, compared with other amino acids” value in the data set on mTOR kinases is “no or opposite effects”.

Take `N[C@@H](Cc1ccccc1)C(=O)O` [phenylalanine, L-Phenylalanine]: in the data set with mTOR kinases, the “activators of mTOR or inhibitors of autophagy, compared with other amino acids” value is listed as “no or opposite effects”.

As for `N[C@@H](CO)C(=O)O` [serine, L-Serine], the “activators of mTOR or inhibitors of autophagy, compared with other amino acids” value in the data set with mTOR kinases is reported as “no or opposite effects”.

On to `N[C@@H](Cc1ccc(O)cc1)C(=O)O` [tyrosine, L-Tyrosine], for which the “activators of mTOR or inhibitors of autophagy, compared with other amino acids” value in the data set with mTOR kinases is recorded as “no or opposite effects”.

Take “ASLW (CXCR4 superagonist) [peptide agonist of CXCR4]”: in the data set with CXCR4, the “agonist behaviour in chemotaxis” value is reported as “superagonist” and the “sensitivity to the CXCR4 antagonist AMD3100” value was “insensitive”.

Regarding Acetyl-proline-glycine-proline [AcPGP], the “concentration level at which the chemoattractant operates” value in the data set with neutrophil (ELR+ CXC chemokines are functional at nanomolar levels) was “micromolar level”.

Consider “Ala-Gln-[1-^14C]Gly-Val (AQGV; also: 14C label at C1 of Gly ([1-14C]Gly)) [[14C]-AQGV]”, for which the “average total recovery of radioactivity” value amounted to 83.2% in data set [2] (10 minutes after dose administration); 70.5% in data set [2] (30 minutes after dose administration); 62.9% in data set [2] (60 minutes after dose administration); 52.6% in [2] (6 hours after dose administration); 50.8% in data set [2] (24 hours after dose administration). Besides, the “administered radioactivity excreted in feces” value in data set [2] (after 24 hours) was 2.6%. The “administered radioactivity excreted in urine” value in data set [2] (after 24 hours) is 10.2%. For the same compound, the “radioactivity in the blood, amount if all counts were in intact peptide” value in data set [2] (blood, 10 minutes after single i.v. dose of 50 mg/kg) was 17.2 µg/g. The “concentration of "peptide" (radioactivity)” value was 362 µg/g in data set [2] (kidneys, after 10 minutes); 61.9 µg/g in [2] (kidneys, after 24 hours); 105 µg/g in data set [2] (liver, after 10 minutes); 37.6 µg/g in data set [2] (liver, after 24 hours); 75.2 µg/g in data set [2] (lung, after 10 minutes); 37.5 µg/g in data set [2] (skin, after 24 hours). In addition, the “concentration of "peptide" (radioactivity)” value in [2] (spleen, after 10 minutes) amounted to 74.7 µg/g; in data set [2] (spleen, after 24 hours) it was 39.3 µg/g; in data set [2] (testis, after 10 minutes), 85.7 µg/g; in [2] (thymus, after 24 hours) it was 43.1 µg/g. For the same compound, the “time to full hydrolysis of the peptide after administration” value in [2] (mice) is 15 min. In [2] (plasma, after 10 minutes, 50 mg/kg i.v.), the “parent compound in plasma (HPLC)” value is reported as “No parent compound could be detected”. Besides, the “administered radioactivity exhaled as volatiles, most likely 14C-CO2” value in data set [2] (up to 24 hours) is “About 50%”. Also, the “parent compound in urine (HPLC)” value in data set [2] (urine, 50 mg/kg i.v.) is listed as “No parent compound was detected”.

For “LQGV (tetrapeptide) [tetrapeptide, sister compound of AQGV]”, the survival in data set [3] (5 mg/kg bodyweight combined with fluid resuscitation and antibiotics, severe cecal ligation and puncture, 30% without peptide) is 70%; in [3] (5 mg/kg bodyweight, first 5 days after moderate cecal ligation and puncture, 20% without) it was 50%. In data set [3] (mouse, in vivo), the “pulmonary nuclear factor-κB activation and pulmonary damage” value is “reduced”. The “cytokine and E-selectin levels” value in data set [3] (peritoneal lavage fluid, lungs, to a lesser extent plasma) was “reduced”.

Regarding Pro-Gly-Pro [PGP], in the data set on neutrophil (unacetylated versus acetylated peptide), the “potency in evoking neutrophil chemotaxis, less than AcPGP” value was 4-7 fold.

Regarding “RSVM (CXCR4 partial agonist) [peptide agonist of CXCR4]”, in the data set with CXCR4, the “agonist behaviour in chemotaxis” value is recorded as “partial agonist” and the “sensitivity to the CXCR4 antagonist AMD3100” value was “insensitive”.

“acyl-YSFKPMPLaR (YSFKPMPLXR; N-acetyl; D-Ala; chemoattractant motif; MOD_RES (1)..(1) …ON; VARIANT (9)..(9) is D-ala) [conformationally constrained decapeptide agonist analog of C5a65-74]”: the “potency relative to unconstrained analog […]” value with guinea pig skin is on record as “at least 10 fold”.

(Values after US20240173375A1, “CHEMOTACTIC AUTOPHAGY-INHIBITING PEPTIDE, COMPOSITIONS AND METHODS RELATED THERETO” (Biotempt B.V., priority 2021, published 2024).)
